These results are taken from ChEMBL document CHEMBL4387714, “Four N-(E)-cinnamoyl (cinnamamide) derivatives of aminoalkanols with promising anticonvulsant and analgesic activity” (Bioorg Med Chem Lett, 2019).

SMILES strings stand for the structures. Active and inactive are the calls of the source.

The ED50 is the dose at which the effect has come halfway, by size or by number of responders.

Series [1] concerns Mus musculus. Nature of the series: Anticonvulsant activity in albino CF1 mouse model of metrazol-induced seizures assessed as metrazol dose causing first twitch at 43 mg/kg, ip administered 0.25 hrs prior to MTZ challenge (reference value: 27.9 +/- 1.2 mg/kg). It counts as functional.
In series [2] the test system is Mus musculus. Briefly: Anticonvulsant activity in albino CF1 mouse model of metrazol-induced seizures assessed as time to twitch at 43 mg/kg, ip administered 0.25 hrs prior to MTZ challenge (reference value: 26.1 +/- 1.2 s). It counts as functional.
Series [3] has as its system Mus musculus. Briefly: Anticonvulsant activity in albino CF1 mouse model of metrazol-induced seizures assessed as time to twitch at 150 mg/kg, ip administered 0.25 hrs prior to MTZ challenge (reference value: 26.1 +/- 1.2 s). It counts as functional.
For series [4], the system named is Mus musculus. Briefly: Analgesic activity in formalin-induced albino CF1 mouse model of hyperalgesia assessed as time spent in paw licking during inflammatory phase at 43 mg/kg, ip administered 0.25 hrs prior to formalin challenge measured first 2 mins of five minutes test for 10 to 40 mins by formalin test relative to control. It counts as functional.
Series [5] has as its system Mus musculus. Nature of the series: Analgesic activity in formalin-induced albino CF1 mouse model of hyperalgesia assessed as time spent in paw licking during acute phase at 43 mg/kg, ip administered 0.25 hrs prior to formalin challenge measured first 2 mins of five minutes test for 10 mins by formalin test relative to control. It counts as functional.
Series [6] deals with Mus musculus. Briefly: Neuroprotective activity against controlled cortical impact-induced C57Bl/6 acute mouse model of traumatic brain injury assessed as lesion volume at 43 mg/kg, ip administered twice daily for 3 days starting from 0.5 hrs post controlled cortical impact challenge measured post-last dose by naurotrace 435/455 staining-based fluorescent microscopy (reference value: 11.9 +/- 0.7 mm3). The series is classed as functional.

The subject of series [7] is Brain. Nature of the series: In vitro anticonvulsant activity in kainic acid-induced albino Sprague Dawley rat brain assessed as blockade of ACSF-stimulated spontaneous electrographic seizure-like activity in medial entorhinal cortex hippocampal brain slices by measuring burst duration at 100 uM measured after 20 mins relative to control. It counts as functional.
Series [8] concerns Mus musculus. Nature of the series: Anticonvulsant activity in albino CF1 mouse assessed as metrazol dose causing first clonus at 150 mg/kg, ip administered 0.25 hrs prior to MTZ challenge (reference value: 31.1 +/- 1.4 mg/kg). It counts as functional.
For series [9], the system named is Mus musculus. Nature of the series: Anticonvulsant activity in albino CF1 mouse assessed as metrazol dose causing first clonus at 43 mg/kg, ip administered 0.25 hrs prior to MTZ challenge (reference value: 31.1 +/- 1.4 mg/kg). It counts as functional.
Series [10] has as its system Mus musculus. Nature of the series: Anticonvulsant activity in albino CF1 mouse model of metrazol-induced seizures assessed as metrazol dose causing first twitch at 150 mg/kg, ip administered 0.25 hrs prior to MTZ challenge (reference value: 27.9 +/- 1.2 mg/kg). The series is classed as functional.
Series [11] concerns Mus musculus. Briefly: Anticonvulsant activity in albino CF1 mouse assessed as time to clonus at 150 mg/kg, ip administered 0.25 hrs prior to MTZ challenge (reference value: 29 +/- 1.5 s). The series is classed as functional.
Series [12] deals with Mus musculus. Nature of the series: Anticonvulsant activity in albino CF1 mouse assessed as time to clonus at 43 mg/kg, ip administered 0.25 hrs prior to MTZ challenge (reference value: 29 +/- 1.5 s). It counts as functional.
A short description of series [13]: Toxicity in albino CF1 mouse assessed as body weight at 43 mg/kg, ip measured at 0.25 hrs (reference value: 26.4 +/- 0.4 g). The note with it: in vivo. It counts as organism-based.
The nature of series [14]: Toxicity in albino CF1 mouse assessed as body weight at 150 mg/kg, ip measured at 0.25 hrs (reference value: 26.4 +/- 0.4 g). The series is classed as organism-based. The note with it: in vivo.
The subject of series [15] is Mus musculus. Briefly: Anticonvulsant activity in ip dosed 60-Hz corneal stimulation-induced full kindling albino CF1 mouse model of epilepsy assessed as reduction in seizure score treated 0.25 hrs prior to 60-Hz corneal stimulation. It counts as functional.
Series [16] relates to Mus musculus. Briefly: Anticonvulsant activity in 60-Hz corneal stimulation-induced full kindling albino CF1 mouse model of epilepsy assessed as reduction in seizure score at 20 mg/kg, ip administered 0.25 hrs prior to 60-Hz corneal stimulation. It counts as functional, organism-based.
Series [17] concerns Mus musculus. Nature of the series: Anticonvulsant activity in 60-Hz corneal stimulation-induced full kindling albino CF1 mouse model of epilepsy assessed as reduction in seizure score at 60 mg/kg, ip administered 0.25 hrs prior to 60-Hz corneal stimulation. The series is classed as functional, organism-based.
The subject of series [18] is Mus musculus. Nature of the series: Anticonvulsant activity in 60-Hz corneal stimulation-induced full kindling albino CF1 mouse model of epilepsy assessed as reduction in seizure score at 86 mg/kg, ip administered 0.25 hrs prior to 60-Hz corneal stimulation. The series is classed as functional, organism-based.
Series [19] has as its system Brain. Nature of the series: In vitro anticonvulsant activity in kainic acid-induced albino Sprague Dawley rat brain assessed as blockade of ACSF-stimulated spontaneous electrographic seizure-like activity in medial entorhinal cortex hippocampal brain slices by measuring burst rate at 100 uM measured after 20 mins relative to control. The series is classed as functional.

The subject of series [20] is Rattus norvegicus. Briefly: Antiallodynic activity in albino Sprague-Dawley rat model of sciatic nerve ligation-induced neuropathic pain assessed as increase in paw withdrawal threshold at 50 mg/kg, po measured after 1 hr by Von Frey test relative to control. The series is classed as functional.
In series [21] the test system is Rattus norvegicus. Briefly: Antiallodynic activity in albino Sprague-Dawley rat model of sciatic nerve ligation-induced neuropathic pain assessed as increase in paw withdrawal threshold at 50 mg/kg, po measured after 2 hrs by Von Frey test relative to control. The series is classed as functional.
The subject of series [22] is Rattus norvegicus. Nature of the series: Antiallodynic activity in albino Sprague-Dawley rat model of sciatic nerve ligation-induced neuropathic pain assessed as increase in paw withdrawal threshold at 50 mg/kg, po measured after 4 hrs by Von Frey test relative to control. The series is classed as functional.
Series [23] concerns Rattus norvegicus. Briefly: Antiallodynic activity in albino Sprague-Dawley rat model of sciatic nerve ligation-induced neuropathic pain assessed as increase in paw withdrawal threshold at 50 mg/kg, po measured after 6 hrs by Von Frey test relative to control. It counts as functional.
Series [24] concerns Rattus norvegicus. Briefly: Antiallodynic activity in albino Sprague-Dawley rat model of sciatic nerve ligation-induced neuropathic pain assessed as time required to show maximum increase in paw withdrawal threshold at 50 mg/kg, po Von Frey test. The series is classed as functional.
The test system of series [25] is Mus musculus. Nature of the series: Anticonvulsant activity in albino CF1 mouse assessed as metrazol dose causing first clonus at 180 mg/kg, ip administered 0.5 hrs prior to MTZ challenge (reference value: 28.4 +/- 1.1 mg/kg). It counts as functional.
For series [26], the system named is Mus musculus. Briefly: Anticonvulsant activity in albino CF1 mouse assessed as metrazol dose causing first clonus at 56 mg/kg, ip administered 0.5 hrs prior to MTZ challenge (reference value: 28.4 +/- 1.1 mg/kg). It counts as functional.
Series [27] relates to Mus musculus. Briefly: Anticonvulsant activity in albino CF1 mouse model of metrazol-induced seizures assessed as metrazol dose causing first twitch at 180 mg/kg, ip administered 0.5 hrs prior to MTZ challenge (reference value: 25.6 +/- 0.9 mg/kg). The series is classed as functional.
Series [28] deals with Mus musculus. Nature of the series: Anticonvulsant activity in albino CF1 mouse model of metrazol-induced seizures assessed as metrazol dose causing first twitch at 56 mg/kg, ip administered 0.5 hrs prior to MTZ challenge (reference value: 25.6 +/- 0.9 mg/kg). The series is classed as functional.
Series [29] has as its system Mus musculus. Briefly: Anticonvulsant activity in albino CF1 mouse assessed as time to clonus at 180 mg/kg, ip administered 0.5 hrs prior to MTZ challenge (reference value: 29.3 +/- 1.2 s). It counts as functional.
Series [30] has as its system Mus musculus. Briefly: Anticonvulsant activity in albino CF1 mouse assessed as time to clonus at 56 mg/kg, ip administered 0.5 hrs prior to MTZ challenge (reference value: 29.3 +/- 1.2 s). The series is classed as functional.
In series [31] the test system is Mus musculus. Briefly: Anticonvulsant activity in albino CF1 mouse model of metrazol-induced seizures assessed as time to twitch at 180 mg/kg, ip administered 0.5 hrs prior to MTZ challenge (reference value: 26.5 +/- 1.0 s). It counts as functional.
In series [32] the test system is Mus musculus. Nature of the series: Anticonvulsant activity in albino CF1 mouse model of metrazol-induced seizures assessed as time to twitch at 56 mg/kg, ip administered 0.5 hrs prior to MTZ challenge (reference value: 26.5 +/- 1.0 s). The series is classed as functional.
Series [33] in a line: Toxicity in albino CF1 mouse assessed as body weight at 56 mg/kg, ip measured at 0.5 hrs (reference value: 29.3 +/- 0.3 g). The note with it: in vivo. It counts as organism-based.
Series [34] is described as follows: Toxicity in albino CF1 mouse assessed as body weight at 180 mg/kg, ip measured at 0.5 hrs (reference value: 29.3 +/- 0.3 g). The series is classed as organism-based. Particulars: in vivo.
Series [35] deals with Mus musculus. Nature of the series: Anticonvulsant activity in 60-Hz corneal stimulation-induced full kindling albino CF1 mouse model of epilepsy assessed as reduction in seizure score at 15 mg/kg, ip administered 0.25 hrs prior to 60-Hz corneal stimulation. The series is classed as functional, organism-based.
Series [36] relates to Mus musculus. Nature of the series: Anticonvulsant activity in 60-Hz corneal stimulation-induced full kindling albino CF1 mouse model of epilepsy assessed as reduction in seizure score at 25 mg/kg, ip administered 0.25 hrs prior to 60-Hz corneal stimulation. It counts as functional, organism-based.
The test system of series [37] is Mus musculus. Nature of the series: Anticonvulsant activity in 60-Hz corneal stimulation-induced full kindling albino CF1 mouse model of epilepsy assessed as reduction in seizure score at 42 mg/kg, ip administered 0.25 hrs prior to 60-Hz corneal stimulation. It counts as functional, organism-based.
The subject of series [38] is Mus musculus. Briefly: Anticonvulsant activity in 60-Hz corneal stimulation-induced full kindling albino CF1 mouse model of epilepsy assessed as reduction in seizure score at 70 mg/kg, ip administered 0.25 hrs prior to 60-Hz corneal stimulation. The series is classed as functional, organism-based.

Take `Cc1ccccc1/C=C/C(=O)N[C@@H](C)CO`: the Activity in the series with Mus musculus [1] amounted to 53.4 mg/kg; with Mus musculus [4] it was 84.29%; in the series with Mus musculus [5], 34.23%; in the series with Mus musculus [6], 11.09 mm3; in the series on Brain [7], 82%; with Mus musculus [8] it was 96.3 mg/kg. Further, the Activity in the series on Mus musculus [9] stood at 74.6 mg/kg; in the series with Mus musculus [10], 93.5 mg/kg; in series [13] it was 25.6 g; in series [14], 26.5 g; in the series on Brain [19], 106%; in the series on Rattus norvegicus [20] it was 233%. Moreover, the Activity in the series on Rattus norvegicus [21] worked out at 254%; with Rattus norvegicus [22], 249%; in the series on Rattus norvegicus [23] it was 237%. Moreover, the Time in the series with Mus musculus [2] came to 48.2 s; in the series with Mus musculus [3], 87.3 s; in the series on Mus musculus [11] it was 90 s; in the series on Mus musculus [12] it was 67.2 s; with Rattus norvegicus [24] it was 2 h. Further, in the series with Mus musculus [15], the ED50 is 36.8 mg/kg. For the same compound, in the series on Mus musculus [16], the outcome was inactive. In addition, the result with Mus musculus [17] and in the series with Mus musculus [18] was Active.
As for `CC(O)CNC(=O)/C=C/c1ccc(Cl)cc1` (racemic), the Activity in the series with Mus musculus [25] was determined as 105.4 mg/kg; in the series with Mus musculus [26], 65.4 mg/kg; in the series on Mus musculus [27], 60.3 mg/kg; in the series with Mus musculus [28], 45 mg/kg; in series [33] it was 28.4 g; in series [34], 28.6 g. The Time in the series on Mus musculus [29] stood at 106.1 s; in the series with Mus musculus [30], 65.6 s; in the series with Mus musculus [31] it was 60.8 s; in the series with Mus musculus [32], 45.1 s. Further, in the series with Mus musculus [15], the ED50 was 51.1 mg/kg. The outcome with Mus musculus [35], in the series with Mus musculus [36] and with Mus musculus [37] was inactive. Further, the outcome with Mus musculus [38] was Active.
